Experimental findings from US11247965B2 (VenatoRx Pharmaceuticals, Inc., priority 2017, dated 2022) are described below.

Data set [1] can be described thus: In vitro cytotoxicity, MTT cell viability assay in HepG2 cells. In kind it is cell-based. Conditions: human, Cytotoxicity CC50. The gist of the method:
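Parental HepG2 cells in EMEM + 10% FBS were exposed to compounds (8 half-log dilutions, 30 μM to 1.0 nM) for 7 days at 37 °C, 5% CO2. MTT was then added for 3-4 h, formazan dissolved in DMSO and absorbance read at 492 nm; CC50 came from 4-parameter fits against vehicle controls.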
In general terms: Tetrazolium assays rely on reduction of a dye to a coloured formazan, in cell work by metabolically active cells.

Data set [2] relates to HBV replication in HepAD38 cells. Kind of data set: Anti-HBV activity in HepAD38 cells, extracellular HBV DNA by QPCR. In kind it is cell-based, HBV (genotype D, serotype ayw). The conditions noted are these: Hepatitis B virus, HePAD38, 168 h, read-out: Anti-HBV EC50, HepAD38 cells, extracellular HBV DNA by QPCR, 7 days of incubation. The method in brief:
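Seven-day compound exposure (30 μM down to 10 nM, half-log steps) after tetracycline withdrawal induced HBV replication in HepAD38 cells. Extracellular viral DNA measured by QPCR (copies/mL via standard curve), normalised to DMSO wells; EC50 from 4-parameter non-linear regression.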

Structures are written as SMILES. Where only a bound is given, the exact number is not on record here.

The CC50 is the concentration at which the toxic effect on the cells reaches its halfway point. In general, EC50 refers to the concentration needed to bring the measured effect to its halfway point. In the case of `Cc1cc(NC(=O)c2ccc(F)c(C(F)(F)C(=O)N3[C@@H]4COC[C@H]3CN(C(=O)N3CCS(=O)(=O)CC3)C4)c2)ccc1F` [Example 210, 3-(2-((1R,5S)-7-(1,1-dioxidothiomorpholine-4-carbonyl)-3-oxa-7,9-diazabicyclo[3.3.1]nonan-9-yl)-1,1-difluoro-2-oxoethyl)-4-fluoro-N-(4-fluoro-3-methylphenyl)benzamide], in data set [1], the cytotoxic concentration (CC50) at 7 days is > 30 µM. Further, the EC50 in data set [2] is < 5 µM.
`Cc1cc(NC(=O)c2ccc(F)c(C(F)(F)C(=O)N3C4CC[C@@H]3C[C@H](NS(C)(=O)=O)C4)c2)ccc1F` [Example 262, 3-(1,1-difluoro-2-((1R,3r,5S)-3-(methylsulfonamido)-8-azabicyclo[3.2.1]octan-8-yl)-2-oxoethyl)-4-fluoro-N-(4-fluoro-3-methylphenyl)benzamide] returned a CC50 at 7 days in data set [1] of 5 to 30 µM. Moreover, the 50% effective concentration (EC50) in data set [2] was < 5 µM.
For the compound `Cn1cc(C(=O)Nc2ccc(F)c(Cl)c2)cc1C(F)(F)C(=O)NOC(C)(C)C` [Example 144, 5-(2-(tert-butoxyamino)-1,1-difluoro-2-oxoethyl)-N-(3-chloro-4-fluorophenyl)-1-methyl-1H-pyrrole-3-carboxamide], in data set [1], the CC50 at 7 days was > 30 µM. Also, the EC50 in data set [2] is < 5 µM.
For the compound `CC(C)n1cc(NC(=O)c2ccc(F)c(C(F)(F)C(=O)N3[C@@H]4CC[C@H]3C[C@H](O)C4)c2)cn1` [Example 185, 3-(1,1-difluoro-2-((1R,3s,5S)-3-hydroxy-8-azabicyclo[3.2.1]octan-8-yl)-2-oxoethyl)-4-fluoro-N-(1-isopropyl-1H-pyrazol-4-yl)benzamide], the CC50 at 7 days in data set [1] is > 30 µM. In addition, the concentration giving a half-maximal response (EC50) in data set [2] fell in the range of 5 to 30 µM.
The like results for `CC(=O)NC1CCN(C(=O)C(F)(F)c2cc(C(=O)Nc3ccc(F)c(C)c3)ccc2F)CC1(C)C` (centres unmarked) [Example 287, 3-(2-(4-acetamido-3,3-dimethylpiperidin-1-yl)-1,1-difluoro-2-oxoethyl)-4-fluoro-N-(4-fluoro-3-methylphenyl)benzamide] were, in that order, 5 to 30 µM and < 5 µM.
With `O=C(Nc1cc(F)c(F)c(F)c1)c1ccc(Cl)c(C(F)(F)C(=O)N2C3CC[C@@H]2C[C@@H](O)C3)c1` [Example 247, 4-chloro-3-(1,1-difluoro-2-((1R,3s,5S)-3-hydroxy-8-azabicyclo[3.2.1]octan-8-yl)-2-oxoethyl)-N-(3,4,5-trifluorophenyl)benzamide], the CC50 at 7 days in data set [1] was 5 to 30 µM. Also, the concentration giving a half-maximal response (EC50) in data set [2] lay in the range of 5 to 30 µM.
In data set [1], `Cc1cc(NC(=O)c2cc(C(F)(F)C(=O)N3[C@@H]4CC[C@H]3C[C@H](O)C4)ccc2F)ccc1F` [Example 220, 5-(1,1-difluoro-2-((1R,3s,5S)-3-hydroxy-8-azabicyclo[3.2.1]octan-8-yl)-2-oxoethyl)-2-fluoro-N-(4-fluoro-3-methylphenyl)benzamide] had a CC50 at 7 days of 5 to 30 µM. Besides, the EC50 in data set [2] is < 5 µM.
The like results for `Cc1cc(NC(=O)c2ccc(F)c(C(F)(F)C(=O)N3CCC(NC(=O)CC4CCOCC4)CC3)c2)ccc1F` [Example 232, 3-(1,1-difluoro-2-oxo-2-(4-(2-(tetrahydro-2H-pyran-4-yl)acetamido)piperidin-1-yl)ethyl)-4-fluoro-N-(4-fluoro-3-methylphenyl)benzamide] were, in that order, 5 to 30 µM and < 5 µM.
The like results for `CC(C)n1cc(NC(=O)c2ccc(F)c(C(F)(F)C(=O)N3[C@@H]4CC[C@H]3C[C@@H](O)C4)c2)cn1` [Example 184, 3-(1,1-difluoro-2-((1R,3r,5S)-3-hydroxy-8-azabicyclo[3.2.1]octan-8-yl)-2-oxoethyl)-4-fluoro-N-(1-isopropyl-1H-pyrazol-4-yl)benzamide] were, in that order, > 30 µM and 5 to 30 µM.
The like results for `Cc1cc(NC(=O)c2cc(Br)c(C(F)(F)C(=O)N3CCC(O)CC3)n2C)ccc1F` [Example 98, 4-bromo-5-(1,1-difluoro-2-(4-hydroxypiperidin-1-yl)-2-oxoethyl)-N-(4-fluoro-3-methylphenyl)-1-methyl-1H-pyrrole-2-carboxamide] were, in that order, > 30 µM and > 30 µM.
